Data as given in patent publication US20230405005A1, “TREATMENT OF GAIT DYSFUNCTION IN NEURODEGENERATIVE DISEASE” (EIP Pharma, Inc., priority 2020, published 2023).

Legend:
human subjects [1] = assay: Personal Care Domain of Clinical Dementia Rating Scale Sum of Boxes (CDR-SB); type: in vivo; conditions: neflamapimod vs placebo over 16 weeks; p=0.02 (MMRM), FIG. 4
Procedure: (§1) A double-blind placebo-controlled, 16-week, treatment with neflamapimod was conducted in parallel groups at 22 centers in the US and 2 centers in the Netherlands.
(§2) Inclusion criteria included Mild-to-moderate (MMSE 15-28) probable Dementia with Lewy Bodies by consensus criteria (McKeith et al, Neurology, 2017; 89:88-100), a positive reading of DaTscan™, and have to have been currently receiving cholinesterase inhibitor therapy (>3 months and stable dose >6 weeks). If DaTscan™ was negative, subjects could also be enrolled with history of polysomnography-confirmed REM sleep disorder (6 study participants so enrolled). The study was randomized 1:1 to 40 mg neflamapimod or matching-placebo capsules. Dosing regimen was based on weight: subjects weighing <80 kg received capsules twice-daily (BID) and those weighing ≥80 kg received capsules three-times-a-day (TID).
Secondary clinical endpoints included the following. (a) International Shopping List Test (ISLT); (b) Timed Up and Go Test (TUG), Ten item Neuropsychiatric Inventory (NPI-10); and (c) Clinical Dementia Rating scale Sum-of-Boxes (CDR-SB). The TUG test is useful to measure risk of fall in patients with or at risk of suffering from Parkinson's disease (see e.g., Arch Phys Med Rehabil. 2013 July; 94(7): 1300-1305).

human subjects [2] = assay: Timed Up and Go (TUG) test, 16-week placebo-controlled clinical study; type: in vivo; conditions: 8 and 16 weeks
Procedure: FIG. 1A illustrates the Timed Up and Go (TUG) test, wherein the time it takes a subject to stand up from a chair, walk three meters, turn around and return to the chair is measured.
as §1, §2
Secondary clinical endpoints included the following. (a) International Shopping List Test (ISLT); (b) Timed Up and Go Test (TUG), Ten item Neuropsychiatric Inventory (NPI-10); and (c) Clinical Dementia Rating scale Sum-of-Boxes (CDR-SB). […]

human subjects [3] = assay: EEG beta functional connectivity, corrected Amplitude Envelope Correlation (AECc); type: in vivo
Procedure: “40 mg” refers to combined neflamapimod patients, including 40 mg BID and 40 mg TID.
These regions, in particular the frontal cortex, receive cholinergic input, including projections from the nucleus basalis of Meynert. Dysfunction of the cholinergic system leads to impaired cortical functional connectivity, which is disruptive to the performance of complex motor functions such as gait. The ability of neflamapimod to improve functional connectivity, as measured by EEG in the experiments described herein, provides further support for the efficacy of neflamapimod to alleviate gait dysfunction.
Functional connectivity analysis, specifically corrected Amplitude Envelope Correlation (AECc), measures interregional communication or so-called ‘functional connectivity’ between different brain regions. In the functional connectivity analysis, a positive neflamapimod treatment effect on AECc in the beta band (13-30 Hz) was identified. Mean AECc beta was increased with neflamapimod TID versus all placebo (p=0.033) and versus placebo TID (p=0.01).

hippocampal neurons = conditions: hippocampal cell culture; cited from earlier work
CKIδ = CKIδ (Homo sapiens, UniProt P48730); conditions: cited from earlier work
CKIδ, sequence (P48730 whole entry, species assumed): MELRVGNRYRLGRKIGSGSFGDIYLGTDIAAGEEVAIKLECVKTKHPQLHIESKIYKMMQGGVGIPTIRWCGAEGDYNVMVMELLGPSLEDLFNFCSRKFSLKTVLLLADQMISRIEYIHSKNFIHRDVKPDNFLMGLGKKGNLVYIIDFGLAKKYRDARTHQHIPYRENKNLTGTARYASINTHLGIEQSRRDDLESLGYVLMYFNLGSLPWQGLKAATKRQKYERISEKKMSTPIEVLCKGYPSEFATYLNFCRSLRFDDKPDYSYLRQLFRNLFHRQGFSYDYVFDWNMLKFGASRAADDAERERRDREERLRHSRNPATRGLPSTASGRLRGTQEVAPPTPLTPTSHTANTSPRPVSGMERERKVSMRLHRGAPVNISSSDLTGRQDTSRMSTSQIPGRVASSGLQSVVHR

CKIε = CKIε (Homo sapiens, UniProt P49674); conditions: cited from earlier work
CKIε, sequence (P49674 whole entry, species assumed): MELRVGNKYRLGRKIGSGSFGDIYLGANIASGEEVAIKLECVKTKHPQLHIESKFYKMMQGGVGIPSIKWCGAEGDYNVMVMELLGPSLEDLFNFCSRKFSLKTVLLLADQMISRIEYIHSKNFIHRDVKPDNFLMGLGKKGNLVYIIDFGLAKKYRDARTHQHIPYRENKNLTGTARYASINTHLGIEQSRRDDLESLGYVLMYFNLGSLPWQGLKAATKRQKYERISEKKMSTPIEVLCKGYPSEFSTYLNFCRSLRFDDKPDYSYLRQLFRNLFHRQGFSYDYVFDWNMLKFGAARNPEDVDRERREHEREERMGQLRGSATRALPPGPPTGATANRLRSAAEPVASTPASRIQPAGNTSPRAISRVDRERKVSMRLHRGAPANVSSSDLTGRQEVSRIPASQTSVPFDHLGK

O=c1ncn2nc(Sc3ccc(F)cc3F)ccc2c1-c1c(Cl)cccc1Cl [neflamapimod, 5-(2,6-dichlorophenyl)-2-(2,4-difluorophenylthio)-6H-pyrimido[1,6-b]pyridazin-6-one]
Personal care domain of the CDR sum of boxes (human subjects [1]): significant positive outcome | TUG test outcome (human subjects [2]; all neflamapimod (40 mg BID and 40 mg TID) vs all placebo, p=0.044 (MMRM), FIG. 2): significantly improve outcome | TUG test outcome (human subjects [2]; neflamapimod 40 mg TID vs placebo TID, p=0.024 (MMRM), FIG. 3): significantly improve outcome | AECc in each of the other bands (human subjects [3]; EEG bands other than beta): stable or slightly improved with no treatment group differences | Mean AECc beta (13-30 Hz) functional connectivity (human subjects [3]; neflamapimod TID versus all placebo (p=0.033) and versus placebo TID (p=0.01)): increased | AECc beta by brain region (human subjects [3]; placebo TID versus neflamapimod TID, frontal p=0.009, temporal p=0.036, parietal p=0.036): most prominent in the frontal region | Effect against amyloid β-derived diffusible ligand (ADDL) induced synaptotoxicity (hippocampal neurons): positive effects

COc1nccc(-c2c(-c3ccc(F)cc3)ncn2C2CCC(O)CC2)n1 (stereo not shown) [SB239063]
Inhibition of casein kinase isoform CKIδ (CKIδ): inhibit | Inhibition of casein kinase isoform CKIε (CKIε): inhibit | Effect against amyloid β-derived diffusible ligand (ADDL) induced synaptotoxicity (hippocampal neurons): ineffective
